Here are results for seven molecules from US20240279236A1, “COMPOUNDS AND METHODS OF TREATING TUBERCULOSIS” (Fimbrion Therapeutics, Inc., priority 2021, published 2024).

SMILES strings stand for the structures.

This assay relates to WT Mtb Erdman strain. The experiment in a line: Microplate Alamar Blue Assay (MABA), Mtb growth inhibition. It counts as cell-based, Mycobacterium tuberculosis. Particulars: Mycobacterium tuberculosis, ERDMAN, 168 h, Middlebrook 7H9 media, 7 days at 37° C. in 5% CO2.
On to `Cc1cc2c(N[C@@H]3C[C@H]3c3ccc(F)c(F)c3)nc(-c3cncnc3)nc2s1` [Example 493, N-((1R,2S)-2-(3,4-difluorophenyl)cyclopropyl)-6-methyl-2-(pyrimidin-5-yl)thieno[2,3-d]pyrimidin-4-amine], for which the IC50 (commonly the concentration that gives 50% inhibition) is over 10 µM.
Regarding `Cc1cc2c(NCCCc3ccccc3)nc(S(C)(=O)=O)nc2s1` [Example 578, 6-methyl-2-(methylsulfonyl)-N-(3-phenylpropyl)thieno[2,3-d]pyrimidin-4-amine], the IC50 is 4 µM.
Regarding `Cc1cc2c(NCCCn3cccc3)nc(C(F)(F)F)nc2s1` [Example 164, N-(3-(1H-pyrrol-1-yl)propyl)-6-methyl-2-(trifluoromethyl) thieno[2,3-d] pyrimidin-4-amine], the IC50 stood at 1.7 µM.
`Cc1cc2c(NCCCc3ccc(-c4ccc(C(F)(F)F)nc4)cc3)nc(-c3ccoc3)nc2s1` [Example 428, 2-(furan-3-yl)-6-methyl-N-(3-(4-(6-(trifluoromethyl)pyridin-3-yl)phenyl)propyl)thieno[2,3-d]pyrimidin-4-amine] showed a concentration for half-maximal inhibition (IC50) of 0.02 µM.
As to `Cc1cc2c(NCCC(C)c3ccccc3)nc(C(F)(F)F)nc2s1` (stereo not shown) [Example 187, 6-methyl-N-(3-phenylbutyl)-2-(trifluoromethyl) thieno[2,3-d] pyrimidin-4-amine], 9.1 µM corresponded to half-maximal inhibition (IC50).
As to `Cc1cc2c(N[C@@H]3C[C@H]3c3ccc(F)c(F)c3)nc(-c3nccs3)nc2s1` [Example 42, N-((1R,2S)-2-(3,4-difluorophenyl)cyclopropyl)-6-methyl-2-(thiazol-2-yl)thieno[2,3-d]pyrimidin-4-amine], it took 8.1 µM to reach half-maximal inhibition (IC50).
Consider `Cc1cc2c(NCCCc3ccccc3)nc(-c3nnc[nH]3)nc2s1` [Example 129, 6-methyl-N-(3-phenylpropyl)-2-(4H-1,2,4-triazol-3-yl)thieno[2,3-d]pyrimidin-4-amine], for which half-maximal inhibition (IC50) required 5.6 µM. The IC50 values of the last two molecules are within 1.5-fold of each other.
